Experimental findings from patent US8168231B2, “Antimicrobial composition useful for preserving wood” (Rohm and Haas Company, priority 2006, dated 2012) are described below.

Read-outs that look alike come from different tables or passages of the source.

Type in all cases: cell-based
Assay [1] has as its system Staphylococcus aureus (S. aureus—ATCC # 6538). In words: Synergy test, microtiter plate high resolution MIC assay (M9GY medium). As to conditions: ppm AI; for MIC: Staphylococcus aureus, read-out: MIC of component acting alone (Ca or Cb). The text has this: (§1) One measure of synergism is the industrially accepted method described by Kull, F. C.; Eisman, P. C.; Sylwestrowicz, H. D. and Mayer, R. L., in Applied Microbiology 9:538-541 (1961), using the ratio determined by the formula: Ca/CA+Cb/CB=Synergy Index (“SI”) wherein: • CA=concentration of compound A (first component) in ppm, acting alone, which produced an end point (MIC of Compound A). • Ca=concentration of compound A in ppm, in the mixture, which produced an end point. • CB=concentration of compound B (second component) in ppm, acting alone, which produced an end point (MIC of Compound B). • Cb=concentration of compound B in ppm, in the mixture, which produced an end point.
(§2) When the sum of Ca/CA and Cb/CB is greater than one, antagonism is indicated. […] The lower the SI, the greater the synergy shown by that particular mixture. The minimum inhibitory concentration (MIC) of an antimicrobial compound is the lowest concentration tested under a specific set of conditions that prevents the growth of added microorganisms.
(§3) Synergy tests were conducted using standard microtiter plate assays with media designed for optimal growth of the test microorganism. Minimal salt medium supplemented with 0.2% glucose and 0.1% yeast extract (M9GY medium) was used for bacteria testing; Potato Dextrose Broth (PDB medium) was used for yeast and mold testing. In this method, a wide range of combinations of microbicides was tested by conducting high resolution MIC assays in the presence of various concentrations of biocides. High resolution MICs were determined by adding varying amounts of microbicide to one column of a microtitre plate and doing subsequent ten-fold dilutions using an automated liquid handling system to obtain a series of end points ranging of active ingredient. The synergy of the combinations of the present invention was determined against two bacteria, Pseudomonas aeruginosa (Ps. aeruginosa—ATCC # 9027) and Staphylococcus aureus (S. aureus—ATCC # 6538), a yeast, Candida albicans (C. albicans—ATCC # 10231), and a mold, Aspergillus niger (A. niger—ATCC 16404). The bacteria were used at a concentration of about 1-6×10^6 bacteria per mL and the yeast and mold at 1−5×10^5 fungi per mL. These microorganisms are representative of natural contaminants in many consumer and industrial applications. […] (yeast and mold) or 30° C. (bacteria).

The test system of assay [2] is Pseudomonas aeruginosa (Ps. aeruginosa—ATCC # 9027). The description is as above. To be noted: ppm AI; for MIC: Pseudomonas aeruginosa, read-out: MIC of component acting alone (Ca or Cb).
Description: as §1, §2, §3

The test system of assay [3] is Aspergillus niger (A. niger—ATCC 16404). The experiment in a line: Synergy test, microtiter plate high resolution MIC assay (PDB medium). To be noted: ppm AI; for MIC: Aspergillus niger, read-out: MIC of component acting alone (Ca or Cb).
Description: as §1, §2, §3

In assay [4] the test system is Candida albicans (C. albicans—ATCC # 10231). Described as above. To be noted: ppm AI; for MIC: Candida albicans, read-out: MIC of component acting alone (Ca or Cb).
Description: as §1, §2, §3

Broadly, the MIC is the smallest concentration in the dilution series that meets the test's criterion for growth inhibition. As for `CCCCCCCCn1sc(Cl)c(Cl)c1=O` [DCOIT, 4,5-dichloro-2-n-octyl-4-isothiazolin-3-one], the MIC worked out at 0.5 µg/mL in assay [1] (ATCC6538, 24 h, Table 1, contact time 24 hrs); 0.65 µg/mL in assay [1] (ATCC6538, 24 h, Table 2, contact time 24 hrs); 0.5 µg/mL in assay [1] (ATCC6538, 48 h, Table 1, contact time 48 hrs); 0.65 µg/mL in assay [1] (ATCC6538, 48 h, Table 2, contact time 48 hrs); 3 µg/mL in assay [2] (ATCC9027, 24 h, Table 1, contact time 24 hrs); 2 µg/mL in assay [2] (ATCC9027, 24 h, Table 2, contact time 24 hrs). In addition, the MIC in assay [2] (ATCC9027, 48 h, Table 1, contact time 48 hrs) amounted to 3 µg/mL; in assay [2] (ATCC9027, 48 h, Table 2, contact time 48 hrs) it was 4.25 µg/mL; in assay [3] (ATCC16404, 72 h, Table 1, contact time 3 days) it was 0.25 µg/mL; in assay [3] (ATCC16404, 72 h, Table 2, contact time 3 days), 0.0875 µg/mL; in assay [3] (ATCC16404, 168 h, Table 1, contact time 7 days), 0.25 µg/mL; in assay [3] (ATCC16404, 168 h, Table 2, contact time 7 days), 0.2 µg/mL. Moreover, the MIC came out at 1 µg/mL in assay [4] (ATCC10231, Table 1, contact time 48 hrs) and 1 µg/mL in assay [4] (ATCC10231, Table 1, contact time 72 hrs).

Take “Monoethanolamine complex of copper carbonate [Cu-MEA]”: the “MIC of component acting alone (Ca or Cb)” value in assay [1] (Table 1, contact time 24 hrs) is 80 ppm; in assay [1] (Table 1, contact time 48 hrs), 200 ppm; in assay [2] (Table 1, contact time 24 hrs) it was 120 ppm; in assay [2] (Table 1, contact time 48 hrs) it was 120 ppm; in assay [3] (Table 1, contact time 3 days), 300 ppm; in assay [3] (Table 1, contact time 7 days), 300 ppm. In addition, the “MIC of component acting alone (Ca or Cb)” value in assay [4] (Table 1, contact time 48 hrs) stood at 200 ppm; in assay [4] (Table 1, contact time 72 hrs) it was 200 ppm.
